The results in this text go back to patent US9902684B2, “Compound isolated from Isodon forrestii var. forrestii and preparation method and applications thereof” (JIANGSU PROVINCE INSTITUTE OF TRADITIONAL CHINESE MEDICINE, priority 2016, dated 2018).

Molecules are shown by their SMILES. Residues, ends and D or L forms follow the SMILES beside them. *: point of attachment. Cbz = O=C(OCc1ccccc1)*; CH2F = FC*

Data set [1] deals with tumor cells (liver cancer, breast cancer, lung cancer, osteosarcoma, melanoma, cervical cancer cell). In words: MTT experiment, growth inhibition of various tumor cells. Format: cell-based. The conditions noted are these: Homo sapiens; all tested tumor cells; FIG. 2. The procedure:
(§1) Dissolving Iso A (purity >99%) in DMSO, and preserving stock solution with concentration of 40 mM in −20° C. Detecting the inhibition effects of Iso A in various cells that includes liver cancer cell, breast cancer cell, lung cancer cell, osteosarcoma cell, melanoma cell, cervical cancer cell etc., and in normal human hepatocyte L02, human embryo lung cell HFL1, human mammary epithelial cell MCF 10A. […] Among tested cells, HepG2 cell is the most sensitive to Iso A, thus HepG2 is selected as a model in follow-up experiments.

Data set [2] has as its system hepatocellular carcinoma cell line HepG2. In words: MTT assay, HepG2 cell growth. To be noted: various concentrations, 24 hours; FIG. 3. Format: cell-based, human. The procedure:
as §1

For data set [3], the system named is human normal hepatic cell line L02. In words: MTT assay, normal hepatic cell L02 growth. Type of data set: cell-based. The conditions noted are these: various concentrations, 24 hours; FIG. 3. How it is done: as §1
For orientation: Tetrazolium assays rely on reduction of a dye to a coloured formazan, in cell work by metabolically active cells.

Another data set deals with HepG2 cells. In words: Trypan blue exclusion assay, HepG2. Type of data set: cell-based, human. To be noted: various concentrations, 24 hours; FIG. 4. How it is done: as §1
Data set [4] relates to human normal hepatic cell L02. In words: Trypan blue exclusion assay, normal cells. Format: cell-based. To be noted: various concentrations, 24 hours; FIG. 4. How it is done:
as §1

The subject of another data set is HepG2 cell. In words: Annexin V flow cytometry analysis of apoptosis. Type of data set: cell-based, human. The conditions noted are these: FIG. 5. How it is done:
as §1

The test system of another data set is HepG2 xenograft. In words: Murine xenograft tumor model of hepatocellular carcinoma. Format: in vivo, BALB/c nude mouse. To be noted: 15 mg/kg once daily, 15 days, vs control group. From the text: • a) Cell line: Human hepatocellular carcinoma cell line HepG2 is bought from the Cell Bank of Chinese Academy of Sciences for Type Culture Collection • b) Animal: 20 BALB/c male nude mouse with weight of (13±2 g), the BALB/c mice is bought from Model Animal Research Center of Nanjing University, the animal is bred under the environment without a special pathogen in the Animal Center of Jiangsu Traditional Chinese Medicine Research Institution [SCXK( ? ) 2002-0001]. • c) Pharmaceutical: Iso A 2. Experiment Method: • a) Make of a murine xenograft model ofepatocellular carcinoma: HepG2 cells in log phase are digested with trypin, and suspended with a final density of 2×10^7 cells/ml. Then, 200 μl (100 μl cells+100 μl matrigel) cell suspension is inoculated into the right subaxillary of nude mice with 1 ml injector. • b) Group and administration of experimental animal: grouping when the tumor becomes 100 mm^3 into 10 per group (same average volume per group, too big or small ones are eliminated). Grouping specifically as followings: (1) Iso A 15 mg/kg dose group, (2) solvent control group (0.5% CMC-Na). […] Antitumor effect is determined by tumor inhibition rate. […]

Data set [5] in a line: Toxicity assessment in xenograft mice (weight, serum indices, blood routine). Type of data set: in vivo, BALB/c nude mouse. To be noted: 15 mg/kg. From the text: • a) Cell line: Human hepatocellular carcinoma cell line HepG2 is bought from the Cell Bank of Chinese Academy of Sciences for Type Culture Collection • b) Animal: 20 BALB/c male nude mouse with weight of (13±2 g), the BALB/c mice is bought from Model Animal Research Center of Nanjing University, the animal is bred under the environment without a special pathogen in the Animal Center of Jiangsu Traditional Chinese Medicine Research Institution [SCXK( ? ) 2002-0001]. • c) Pharmaceutical: Iso A 2. Experiment Method: • a) Make of a murine xenograft model ofepatocellular carcinoma: HepG2 cells in log phase are digested with trypin, and suspended with a final density of 2×10^7 cells/ml. Then, 200 μl (100 μl cells+100 μl matrigel) cell suspension is inoculated into the right subaxillary of nude mice with 1 ml injector. • b) Group and administration of experimental animal: grouping when the tumor becomes 100 mm^3 into 10 per group (same average volume per group, too big or small ones are eliminated). Grouping specifically as followings: (1) Iso A 15 mg/kg dose group, (2) solvent control group (0.5% CMC-Na). Administrate one time every day for total 15 days. • c) Sample selection and index observation: • i. observation for normal state: before drug administration, measure the weight and tumor size (tumor volume V=long diameter×short diameter^2/2) one time every day. Observe the locomotor activity, mental state, hair, breath, diet, manure trait and reaction to outside world of the mice. After ending pharmaceutical interference, the mice are anesthetized and the blood is acquired by cardiac puncture. The serum is got by centrifugation and store in −80° C. After the skin of the tumor growing part on the right axilla of the mice is nipped by forceps, use a surgical scissors to cut the skin for exposing the tumor, then use the surgical scissors to dissect the tumor with blunt dissection and use a scale to weigh the tumor, transplanted tumor and calculate the inhibition rate. Antitumor effect is determined by tumor inhibition rate. Tumor inhibition rate (%)=[1−(average weight of tumor in experimental group/average weight of tumor in control group)]×100% • ii. Detecting apoptosis of tumor tissues with TUNEL staining: according to TUNEL apoptosis detection kit specification of Roche Inc. after fixing frozen tissue section in room temperature. • iii. Blood routine examination for assessing the marrow toxicity of Iso A, analyze ALT, AST, ALP level in plasma for assessing hepatotoxicity of Iso A, and measure the creatinine and urea nitrogen for assessing renal damage.
Fabricate mice transplanted hepatocellular carcinoma model, and group mice into control group and Iso A (15 mg/kg) administration group at random. Record the weight and tumor size one time every three days and kill the mice after 15-day-administration for detection and analysis of the tumor tissues, blood etc.

In data set [6] the target is T1, Trx1 (Homo sapiens, UniProt P10599).
T1 sequence (P10599 1-105): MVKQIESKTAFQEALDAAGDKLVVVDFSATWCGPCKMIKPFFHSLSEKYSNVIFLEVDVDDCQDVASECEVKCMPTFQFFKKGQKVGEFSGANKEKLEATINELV
In words: In vitro Trx1 activity, Thioredoxin Activity Fluorescent Assay Kit. Type of data set: biochemical. Further details: purchased Sino Biological Inc. The conditions noted are these: read-out: inhibition rate of Trx1 activity. How it is done: Trx1 protein was bought from Sino Biological Inc., Trx1 activity detection kit was bought from American Caymen Chemical cooperation.
The in vitro activity of Trx is assayed using the—Thioredoxin Activity Fluorescent Assay Kit (Caymen Chemical). According to the instructions of the kit 2 μl of Iso A with different concentrations (0.195 μM to 100 μM) is added into 0.02 μM Trx mix, following by adding 5 μl of β-NADPH into each sample to incubate in 37° C. for 30 min. Then, a fluorescent substrate is added and Trx1 activity is was recorded as the emission at 518 nm after 488 nm excitation for 30-60 min, with a Thermo Scientific Varioskan Flash fluorescent microplate reader.

In data set [7] the target is T1, Trx1. In words: Mass spectrometry analysis of direct conjugation with Trx1 protein. Format: binding. Further details: purchased Sino Biological Inc. The conditions noted are these: 2 h room temperature, MALDI mass spectrometry; FIG. 8. The procedure: Human-derived Trx1 protein (Sino Biological Inc.) is dissolved in distilled water at a 5 mg/ml and stored. In 25 mM Tris-HCl (pH 7.4) buffer, mixi 4 μl Iso A with 140 μl human Trx1 protein to incubate for 2 h in room temperature. Samples after reaction is treated by Shimadzu Biotech Proteome kit for enzymatic hydrolysis with MonoSpin Trypsin, then desalted by MonoSpin® C18 column for mass spectrometry analysis with MALDI 7090 (SHIMADZU).

Data set [8] has as its target T1, Trx1. In words: Trx1 activity in HepG2 cells (insulin reduction/DTNB). Format: cell-based. The conditions noted are these: 10-30 μM for 8 hours; relative to 0.5% DMSO control; FIG. 7. Further details: endogenous in cells; host or cells: HepG2. The procedure: (§2) Methods for measuring Trx1 activity in cells or tissue samples: using lysates (20 mM HEPES (pH 7.9), 300 mM NaCl, 100 mM KCl, 10 mM EDTA and 0.1% Nonidet P-40, protease-contained inhibitor) to lyse the cells or tissue samples. Pre-treating 90 μg protein at 37° C. for 15 min by using DTT activation buffer (50 mmol/liter HEPES (pH 7.6), 1 mmol/liter EDTA, 1 mg/ml bovine serum albumin, and 2 mmol/liter dithiothreitol). Then adding 20 μl reaction mixture (200 μl of 1 M HEPES (pH 7.6), 40 μl of 0.2 mol/liter EDTA, 40 μl of NADPH (40 mg/ml)) and 500 μl insulin. Adding 5 μl thioredoxin reductase for initial reaction while adding water of same volume into the control group. Incubate the samples in 37° C. for 20 min, and then add 6 M guanidine hydrochloride of 0.25 ml and 0.4 mg/ml DTNB to terminate reaction. Detecting optical absorption of 412 nm.
Cultivate human hepatocellular carcinoma cell line HepG2 in vitro culture. […] Calculate the relative activity of Trxl in each group under the condition that negative control activity is 1.

For data set [9], the target named is T1, Trx1. In words: Trx1 activity in xenograft tumor tissues. The conditions noted are these: 15 mg/kg once daily, 15 days; FIG. 12. Type of data set: in vivo, BALB/c nude mouse. Also noted: from tissue; host or cells: HepG2 xenograft tumor from BALB/c nude mice. How it is done:
as §2, with “Detecting optical absorption of 412 nm.” left out
• a) Cell line: Human hepatocellular carcinoma cell line HepG2 is bought from the Cell Bank of Chinese Academy of Sciences for Type Culture Collection • b) Animal: 20 BALB/c male nude mouse with weight of (13±2 g), the BALB/c mice is bought from Model Animal Research Center of Nanjing University, the animal is bred under the environment without a special pathogen in the Animal Center of Jiangsu Traditional Chinese Medicine Research Institution [SCXK( ? ) 2002-0001]. • c) Pharmaceutical: Iso A 2. […] Antitumor effect is determined by tumor inhibition rate. […]

By IC50 is commonly meant the concentration needed to halve the response being measured. As usually defined, the inhibition is how much of the control response was suppressed. In [1], `C=C1C(=O)[C@]23C[C@H]1[C@@H](OC(C)=O)[C@H](OC(C)=O)[C@H]2[C@]1(C)C[C@H](OC(C)=O)[C@H](OC(C)=O)C(C)(C)[C@H]1[C@@H](O)C3` [Iso A, Isoforresin A] yielded an IC50 of less than 30 µM. Besides, in data set [2], the “inhibition of HepG2 cell growth (MTT)” value is given as “inhibit the growth of HepG2 cell in a concentration-dependent manner”. For the same compound, in data set [3], the “inhibition of L02 cell growth (MTT)” value was “no obvious inhibitory effects”. Moreover, the “cell death of HepG2 cells (trypan blue exclusion)” value in the data set on HepG2 cells is “selectively trigger the death of HepG2 cells”. In data set [4], the “toxicity to normal cells (trypan blue exclusion)” value was “obviously not toxic”. For the same compound, the “Annexin V positive cells (apoptosis)” value in the data set with HepG2 cell (HepG2, 10 or 20 μM Iso A, 24 hours) is on record as “increasement of Annexin V positive cells”. Further, the tumor volume result in the data set on HepG2 xenograft (FIG. 10) is listed as “significantly decreased”. Further, the tumor weight entry with HepG2 xenograft (FIG. 11) was “significantly decreased”. For the same compound, the “toxic or side effects on marrow, liver and kidney” value in [5] (15 days, xenograft murine model) is given as “no toxic or side effects”. Also, in [5] (15 days, FIG. 13), the “ALP level in serum” value is reported as “no obvious difference”, the “ALT level in serum” value is “no obvious difference” and the “AST level in serum” value is given as “no obvious difference”. In data set [5] (15 days, FIG. 14), the “creatinine level in serum” value was “no obvious difference” and the “urea nitrogen level in serum” value is reported as “no obvious difference”. Moreover, the “body weight of mice” value in data set [5] (during administration, vs control group, FIG. 9) was “no difference in weight”. On Trx1 [6], the inhibition at 2.5 µM stood at 20%, the inhibition at 5 µM amounted to 48.6% and the inhibition at 10 µM was found to be 98%. Further, at Trx1 [7], the “direct binding/conjugation with Trx1 protein (Cys 32/35)” value was “can directly bind with Trx1 protein”. The “Trx1 activity in HepG2 cells” value at Trx1 [8] is “significantly reduced”. Further, the “Trx1 activity in the tumor tissues” value at Trx1 [9] is “significantly decreased”.

On to `COC(=O)C[C@H](NC(=O)[C@H](C)NC(=O)[C@@H](NC(=O)OCc1ccccc1)C(C)C)C(=O)CF` [Z-VAD-FMK, reference compound] (Cbz-Val-Ala-Asp(OMe)-CH2F), for which the “effect of pan-caspase inhibitor on apoptosis induced by Iso A” value with HepG2 cell (HepG2) is on record as “partially inhibits the apoptosis induced by Iso A”.
